Measured values reported in patent US9321748B2, “Aminopyridine derived compounds as LRRK2 inhibitors” (H. Lundbeck A/S, priority 2013, dated 2016).

Tests used:
[1] = target: LRRK2 G2019S (Homo sapiens (Human), UniProt Q5S007, G2019S); assay: LRRK2 G2019S kinase activity assay (LanthaScreen TR-FRET); assay type: biochemical; details: 250 pM LRRK2 G2019S kinase, 1.3 mM ATP, 0.4 μM fluorescein-LRRKtide
Procedure: (§1) LRRK2 Wild-Type and G2019S Kinase Activity Assay.
(§2) LRRK2 kinase activity is measured using a LanthaScreen kinase activity assay available from Invitrogen (Life Technologies Corporation). […] The phosphorylated peptide is recognized by a terbium-labelled phospho-specific anti-LRRKtide antibody and, subsequently, the phosphorylated LRRKtide can be quantified by the extent of TR-FRET between the terbium donor and fluorescein acceptor.
(§3) The LRRK2 kinase is obtained from Invitrogen (Life Technologies Corporation) and comprises residue 970 to 2527 of the full length human wildtype LRRK2 kinase or a similar sequence with the G2019S mutation. As discussed above, this mutation increases the kinase activity relative to the wild type. The kinase reactions are performed in a […] volume in 384-well plates. The kinase reaction buffer consists of 50 mM Tris pH 8.5, 0.01% BRIJ-35, 10 mM MgCl2, 1 mM EGTA, and 2 mM DTT.
(§4) The reaction mixture (20 μl total volume) is incubated for 2 hours at 30° C. before the reaction is terminated by addition of 10 mM EDTA and 1 nM terbium-labelled anti-phospho-LRRKtide antibody (final volume […]). The mixture is further incubated for 30 minutes at RT. TR-FRET is measured by excitation of the terbium-donor with 340 nm light and subsequent (delay time 100 μs) measurement of terbium and fluorescein emission at 495 nm and 520 nm, respectively, over a time window of 1000 μs. The measurement is repeated 10 times for fluorescein and 10 times for terbium emission with a 2000 μs time window between repeats. TR-FRET measurements are performed on a […] plate. The TR-FRET signal is calculated as the emission-ratio at 520 nm over 495 nm.
(§5) Test compound potency (IC50) was estimated by nonlinear regression using the sigmoidal dose-response (variable slope) using Xlfit 4 (IDBS, Guildford, Surrey, UK, model 205). y=(A+((B−A)/(1+((C/x)^D)))) where y is the normalized TR-TRET ratio measurement for a given concentration of test compound, x is the concentration of test compound, A is the estimated efficacy (% inhibition) at infinite compound dilution, and B is the maximal efficacy (% inhibition). C is the IC50 value and D is the Hill slope coefficient. IC50 estimates were obtained from independent experiment and the logarithmic average was calculated.

[2] = target: LRRK2 WT (Homo sapiens (Human), UniProt Q5S007); assay: LRRK2 wild-type kinase activity assay (LanthaScreen TR-FRET); assay type: biochemical; details: 1 nM LRRK2 WT kinase, 1.3 mM ATP, 0.4 μM fluorescein-LRRKtide
Procedure: as §1, §2, §3, §4, §5

Chain of LRRK2 G2019S (Q5S007 970-2527 G2019S): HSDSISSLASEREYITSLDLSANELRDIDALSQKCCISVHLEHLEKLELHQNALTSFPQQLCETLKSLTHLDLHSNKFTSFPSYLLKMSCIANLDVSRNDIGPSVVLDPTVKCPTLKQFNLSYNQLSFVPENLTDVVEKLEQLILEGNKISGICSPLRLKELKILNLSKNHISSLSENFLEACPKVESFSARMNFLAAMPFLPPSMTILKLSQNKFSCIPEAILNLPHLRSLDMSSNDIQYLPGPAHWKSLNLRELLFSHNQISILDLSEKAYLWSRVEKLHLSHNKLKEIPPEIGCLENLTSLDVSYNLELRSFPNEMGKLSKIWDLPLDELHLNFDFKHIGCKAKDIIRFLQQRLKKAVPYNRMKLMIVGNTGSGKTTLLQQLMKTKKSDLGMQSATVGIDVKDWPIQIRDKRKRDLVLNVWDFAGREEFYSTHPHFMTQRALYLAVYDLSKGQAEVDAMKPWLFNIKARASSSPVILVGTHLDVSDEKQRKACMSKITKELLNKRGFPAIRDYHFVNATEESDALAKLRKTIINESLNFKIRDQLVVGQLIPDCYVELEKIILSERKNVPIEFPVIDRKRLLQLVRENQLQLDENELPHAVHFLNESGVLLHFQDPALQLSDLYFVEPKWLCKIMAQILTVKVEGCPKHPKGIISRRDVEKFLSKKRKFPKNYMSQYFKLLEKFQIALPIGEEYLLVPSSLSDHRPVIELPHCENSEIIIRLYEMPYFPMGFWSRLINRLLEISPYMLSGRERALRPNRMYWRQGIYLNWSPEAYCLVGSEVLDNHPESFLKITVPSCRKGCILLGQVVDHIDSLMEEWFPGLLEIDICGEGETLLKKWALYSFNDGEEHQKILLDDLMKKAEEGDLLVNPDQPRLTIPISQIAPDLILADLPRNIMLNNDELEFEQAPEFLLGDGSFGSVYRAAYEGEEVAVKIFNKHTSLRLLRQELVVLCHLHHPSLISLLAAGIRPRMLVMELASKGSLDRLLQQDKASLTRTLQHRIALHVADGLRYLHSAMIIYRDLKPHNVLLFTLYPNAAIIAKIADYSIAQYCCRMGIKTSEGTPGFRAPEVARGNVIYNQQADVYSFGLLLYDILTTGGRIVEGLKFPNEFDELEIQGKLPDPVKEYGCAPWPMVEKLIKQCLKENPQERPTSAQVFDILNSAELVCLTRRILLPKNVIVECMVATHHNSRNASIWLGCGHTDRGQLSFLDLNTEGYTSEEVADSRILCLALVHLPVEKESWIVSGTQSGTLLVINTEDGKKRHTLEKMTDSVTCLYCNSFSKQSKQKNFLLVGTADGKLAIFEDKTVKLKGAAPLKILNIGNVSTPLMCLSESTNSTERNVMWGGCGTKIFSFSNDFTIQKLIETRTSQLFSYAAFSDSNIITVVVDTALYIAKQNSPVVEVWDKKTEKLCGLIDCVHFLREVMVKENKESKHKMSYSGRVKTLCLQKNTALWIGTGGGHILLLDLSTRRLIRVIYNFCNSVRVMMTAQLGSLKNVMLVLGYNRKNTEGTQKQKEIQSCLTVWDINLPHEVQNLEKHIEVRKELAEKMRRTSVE
Chain of LRRK2 WT (Q5S007 970-2527): as the sequence (Q5S007 970-2527 G2019S) above, with S1050G counted along it

| Compound | IC50 [1] [nM] | IC50 [2] [nM] |
| --- | --- | --- |
| CC(C)n1cc(-c2cc(-c3ccc(CC(=O)N4CCOCC4)cc3)cnc2N)nn1 [Example 30, 2-[4-[6-amino-5-(1-isopropyltriazol-4-yl)-3-pyridyl]phenyl]-1-morpholino-ethanone] | 520 | 670 |
| CC(C)n1cc(-c2cc(-c3ccc(C(=O)N4CCOCC4)c(Cl)c3)cnc2N)nn1 [Example 22, [4-[6-amino-5-(1-isopropyltriazol-4-yl)-3-pyridyl]-2-chloro-phenyl]-morpholino-methanone] | 290 | 290 |
| CC(C)n1cc(-c2cc(-c3ccc4c(c3)CCN4C)cnc2N)nn1 [Example 10, 3-(1-Isopropyl-1H-[1,2,3]triazol-4-yl)-5-(1-methyl-2,3-dihydro-1H-indol-5-yl)-pyridin-2-ylamine] | 350 | 620 |
| CN1CCc2cc(-c3cnc(N)c(-c4nnc(C5CC5)o4)c3)ccc21 [Example 3, 3-(5-Cyclopropyl-[1,3,4]oxadiazol-2-yl)-5-(1-methyl-2,3-dihydro-1H-indol-5-yl)-pyridin-2-ylamine] | 710 | 970 |
| COc1cc(-c2cnc(N)c(-c3cn(C(C)C)nn3)c2)ccc1CN1CCOCC1 [Example 18, 3-(1-isopropyltriazol-4-yl)-5-[3-methoxy-4-(morpholinomethyl)phenyl]pyridin-2-amine] | 86 | 93 |
| COc1cccc(-c2cnc(N)c(-c3nnc(C4CCNCC4)o3)c2)c1 [Example 7, 5-(3-Methoxy-phenyl)-3-(5-piperidin-4-yl-[1,3,4]oxadiazol-2-yl)-pyridin-2-ylamine] | 1000 | 3300 |
| Nc1ncc(-c2ccc(CN3CCOCC3)cc2)cc1-c1nnc(C2CC2)o1 [Example 6, 3-(5-Cyclopropyl-[1,3,4]oxadiazol-2-yl)-5-(4-morpholin-4-ylmethyl-phenyl)-pyridin-2-ylamine] | 390 | 490 |
| CC(C)n1cc(-c2cc(-c3cc(Cl)cc(C(=O)N4CCOCC4)c3)cnc2N)nn1 [Example 26, [3-[6-Amino-5-(1-isopropyltriazol-4-yl)-3-pyridyl]-5-chloro-phenyl]-morpholino-methanone] | 690 | 490 |
| CC(C)n1cc(-c2cc(-c3ccc(C(=O)N4CCOCC4)c(F)c3)cnc2N)nn1 [Example 16, (4-(6-amino-5-(1-isopropyl-1H-1,2,3-triazol-4-yl)pyridin-3-yl)-2-fluorophenyl)(morpholino)methanone] | 510 | 580 |
| Cc1cc(-c2cnc(N)c(-c3cn(C(C)C)nn3)c2)ccc1C(=O)N1CCOCC1 [Example 20, [4-[6-amino-5-(1-isopropyltriazol-4-yl)-3-pyridyl]-2-methyl-phenyl]-morpholino-methanone] | 110 | 99 |
| Cc1cc(-c2cnc(N)c(-c3cn(C(C)C)nn3)c2)ccc1CN1CCOCC1 [Example 21] | 240 | 260 |
| CC(C)n1cc(-c2cc(-c3ccc(CN4CCOCC4)c(F)c3)cnc2N)nn1 [Example 15, 5-(3-fluoro-4-(morpholinomethyl)phenyl)-3-(1-isopropyl-1H-1,2,3-triazol-4-yl)pyridin-2-amine] | 370 | 200 |
| CC(C)n1cc(-c2cc(-c3cccc(CN4CCOCC4)c3)cnc2N)nn1 [Example 24, 3-(1-Isopropyltriazol-4-yl)-5-[3-(morpholinomethyl)phenyl]pyridin-2-amine] | 500 | 370 |
| COc1cc(-c2cnc(N)c(-c3cn(C(C)C)nn3)c2)ccc1C(=O)N1CCOCC1 [Example 17, [4-[6-amino-5-(1-isopropyltriazol-4-yl)-3-pyridyl]-2-methoxy-phenyl]-morpholino-methanone] | 95 | 91 |
| CC(C)n1cc(-c2nc(-c3ccc4c(c3)CCN4C)cnc2N)nn1 [Example 11, 3-(1-Isopropyl-1H-[1,2,3]triazol-4-yl)-5-(1-methyl-2,3-dihydro-1H-indol-5-yl)-pyrazin-2-ylamine] | 340 | 570 |
| CC(C)n1cc(-c2cc(-c3ccc(CN4CCOCC4)cc3)cnc2N)nn1 [Example 12, 3-(1-Isopropyl-H-[1,2,3]triazol-4-yl)-5-(4-morpholin-4-ylmethyl-phenyl)-pyridin-2-ylamine] | 160 | 300 |
| CC(C)n1cc(-c2cc(-c3ccc(N4CCOCC4)cc3)cnc2N)nn1 [Example 13, 3-(1-Isopropyl-1H-[1,2,3]triazol-4-yl)-5-(4-morpholin-4-yl-phenyl)-pyridin-2-ylamine] | 280 | 340 |
| CC(C)n1cc(-c2cc(-c3ccc(CN4CCOCC4)c(Cl)c3)cnc2N)nn1 [Example 23, 5-[3-Chloro-4-(morpholinomethyl)phenyl]-3-(1-isopropyltriazol-4-yl)pyridin-2-amine] | 220 | 320 |
| CC(C)n1cc(-c2cc(-c3cccc(C(=O)N4CCOCC4)c3)cnc2N)nn1 [Example 25, [3-[6-Amino-5-(1-isopropyltriazol-4-yl)-3-pyridyl]phenyl]-morpholino-methanone] | 950 | 650 |
| CC(C)n1cc(-c2cc(-c3ccc(C(=O)N4CCOCC4)cc3)cnc2N)nn1 [Example 28, [4-[6-Amino-5-(1-isopropyltriazol-4-yl)-3-pyridyl]phenyl]-morpholino-methanone] | 430 | 370 |
| Nc1ncc(-c2ccc3[nH]ccc3c2)cc1-c1nnc(C2CC2)o1 [Example 2, 3-(5-Cyclopropyl-[1,3,4]oxadiazol-2-yl)-5-(1H-indol-5-yl)-pyridin-2-ylamine] | 1000 | 570 |
| CN1CCc2cc(-c3cnc(N)c(-c4nnc(C5CCNCC5)o4)c3)ccc21 [Example 5, 5-(1-Methyl-2,3-dihydro-1H-indol-5-yl)-3-(5-piperidin-4-yl-[1,3,4]oxadiazol-2-yl)-pyridin-2-ylamine] | 380 | 2200 |
| Cc1ccc(-c2cnc(N)c(-c3nnc(C4CCN(C)CC4)o3)c2)cc1 [Example 4, 3-[5-(1-Methyl-piperidin-4-yl)-[1,3,4]oxadiazol-2-yl]-5-p-tolyl-pyridin-2-ylamine] | 860 | 3600 |
| COc1cccc(-c2cnc(N)c(-c3nnc(C4CCN(C)CC4)o3)c2)c1 [Example 8, 5-(3-Methoxy-phenyl)-3-[5-(1-methyl-piperidin-4-yl)-[1,3,4]oxadiazol-2-yl]-pyridin-2-ylamine] | 880 | 2200 |
| CC(C)n1cc(-c2cc(-c3ccc(F)c(CN4CCOCC4)c3)cnc2N)nn1 [Example 19, 5-[4-fluoro-3-(morpholinomethyl)phenyl]-3-(1-isopropyltriazol-4-yl)pyridin-2-amine] | 880 | 1000 |
| CC(C)n1cc(-c2cc(-c3ccc(CCN4CCOCC4)cc3)cnc2N)nn1 [Example 14, 3-(1-Isopropyl-1H-[1,2,3]triazol-4-yl)-5-[4-(2-morpholin-4-yl-ethyl)-phenyl]-pyridin-2-ylamine] | 340 | 600 |
| CC(C)c1nnc(-c2cc(-c3ccc4[nH]ccc4c3)cnc2N)o1 [Example 1, 5-(1H-Indol-5-yl)-3-(5-isopropyl-[1,3,4]oxadiazol-2-yl)-pyridin-2-ylamine] | 910 | – |
| CC(C)n1cc(-c2cc(-c3ccc4c(ccn4C)c3)cnc2N)nn1 [Example 9, 3-(1-Isopropyl-1H-[1,2,3]triazol-4-yl)-5-(1-methyl-1H-indol-5-yl)-pyridin-2-ylamine] | 540 | 550 |
